# Measurements taken from US20260193171A1, “PHARMACEUTICAL SALT OF POLYAMINE DERIVATIVE, CRYSTAL FORM THEREOF, AND PREPARATION METHOD THEREFOR” (WUHAN WUYAO SCI & TECH CO., LTD, priority 2022, published 2026).
# Read-outs that look alike come from different tables or passages of the source.
# Experiments:
# Format in all cases: physicochemical
# [1] = Screening of salt form (salt-forming morphology); conditions: for Salt-forming morphology: free base in ethanol plus acid, room temperature, acid-base molar feeding ratio 1:1 (α, unmarked) or 3:1 (β)
# Description: The subsequent processing steps were as follows: 1) the turbid system(s) was centrifuged to separate solids; 2) the wall-sticking and gelling system(s) was subjected to cyclic heating and cooling treatment at 25-50° C. (the heating and cooling procedure is shown in Table 5) for the purpose of trying to improve the apparent state/obtain solids; 3) the clear or slightly turbid system(s) was magnetically stirred at 5° C. for about 5 h, and then left to stand at −20° C. overnight for the purpose of trying to collect a sufficient amount of solids for subsequent characterization, and if the amount of solids was still low, slow volatilization at room temperature was performed; if the system(s) was still clear ultimately, anti-solvent addition (n-heptane) or slow volatilization at room temperature was performed. The solids obtained above were centrifuged.
# [2] = Observation of isolated solid after filtration; conditions: after slurrying with ethyl acetate and filtration, room temperature
# Description: The solution of phosphoric acid in methanol was slowly and dropwise added to the solution of the free base in methanol. The mixture was reacted under stirring at 0-5° C. for 4 h. Serious wall sticking was observed. After the methanol was concentrated to dryness, the sticky solid on the wall was scraped by a spatula, slurried with ethyl acetate, and then filtered. […] The oil was dried in an oven at 30° C. for 16 h to obtain a solid. The solid was sampled for purity, content, and acid-base ratio tests. The acid-base ratio is the molar amount of phosphoric acid/the molar amount of bis((N-3-aminopropyl)-(N-(3,4-dimethoxyphenylpropionyl)))aminopropylamine, namely the acid-base molar ratio.
# [3] = Crystal form stability of phosphate crystal form A; conditions: 2 weeks
# Description: The conditions of the X-ray powder diffractometer (XRPD) test were as follows: X-ray powder diffraction data of a sample(s) was collected at ambient conditions using Bruker D2 PHASER X-ray powder diffractometer with an X-ray emitter power of 300 W, a sample stage with no background signal, a step speed of 0.15 s/step, total step of 1837 steps, a step size of 2θ=0.02°, a voltage of 30 kV, and a current of 10 mA. The X-ray tube was a tube of Cu target (Kα) with a Kα2/Kα1 strength ratio of 0.50 (1.54439 Å/1.5406 Å).
# [4] = Solid stability test at 25° C./60% RH, chemical purity by HPLC; conditions: for Change in properties and purity on storage: 5 days and 2 weeks; for Purity (peak area, %) 0 day: initial sample; for Stability (judgement in words): room temperature storage
# Description: The stability of a sample(s) was determined by HPLC, and specifically, Agilent 1260 Infinity II LC System (equipped with a DAD detector) was used to collect the purity and solubility data of the sample(s).
# To assess the solid stability of different salts, about 15 mg of a sample was weighed into an HPLC vial, and the vial was opened and placed at 25° C./60% RH. The initial sample and the samples stored for 5 days and 2 weeks were subjected to chemical purity assays (HPLC) and hygroscopicity tests. […] The solid phosphate prepared with an acid-base feeding ratio of 1 or 3 was sampled to measure the acid-base ratio, and the test method for the content of phosphate radical ions is shown in Table 2.
# (§1) The stability of the samples were determined by HPLC, and specifically, Agilent 1260 Infinity II LC System (equipped with a DAD detector) was used to collect the purity and solubility data of samples. The hygroscopicity of samples was determined according to the method in the Phamacopoeia of the People's Republic of China, and the specific determination method is shown in section “6. Determination of hygroscopicity” of the specification.
# [5] = Determination of hygroscopicity (Chinese Pharmacopoeia 2015); conditions: 25° C., 80% RH, 24 h; for Hygroscopicity (%): weight gain
# Description: The hygroscopicity was determined by referring to the guiding principle of the hygroscopicity test of medicaments in the Phamacopoeia of the People's Republic of China 2015 Edition. The specific test method is as follows: • 1. taking a dried glass weighing bottle with a stopper (outside diameter: 50 mm, height: 15 mm) and placing in a suitable 25° C.±1° C. thermostatic dryer (with a saturated ammonium chloride or ammonium sulfate solution placed in the lower part) or a climatic cabinet (with temperature set at 25° C.±1° C., and relative humidity set at 80%±2%) one day before the test, and accurately weighing the weight (m1). • 2. taking an appropriate amount of a test sample, spreading it in the weighing bottle described above with a thickness of about 1 mm, and accurately weighing the weight (m2). • 3. opening the weighing bottle, and placing it under constant temperature and humidity conditions for 24 h together with the bottle cap. • 4. covering the weighing bottle, and accurately weighing the weight (m3).
# as §1
# [6] = Dynamic solubility in water and biological vehicles at 37° C.; conditions: for solubility: thermodynamic from solid, 100 rpm, 1/4/24 h, HPLC
# Description: The phosphate was subjected to dynamic solubility tests in water and 3 biological vehicles (simulated gastric juice SGF, simulated fasting intestinal juice FaSSIF, and simulated feeding intestinal juice FeSSIF) at 37° C., and the specific method for the solubility tests were as follows: four samples of 30 mg each were weighed, and added into 3 mL of water and 3 biological solvents separately, and shaken at a constant temperature of 37° C.
# The solubility of the phosphate in water/SGF/FaSSIF/FeSSIF was >9 mg/mL. The solubility of samples was determined by HPLC, and specifically, Agilent 1260 Infinity II LC System (equipped with a DAD detector) was used to collect the purity and solubility data of samples. […] The phosphate had good solubility both in water and simulated in-vivo environment.
# [7] = Stability of free base left at room temperature
# [8] = Stability of acid-base ratio on recrystallization in methanol-water or water-methanol; conditions: methanol-water or water-methanol recrystallization system
compound,measurement,setting,value
O=C(O)c1ccccc1 [Benzoic acid],Salt-forming morphology,[1],Oil^#
"COc1ccc(CCC(=O)NCCCN(CCCN)CCCNC(=O)CCc2ccc(OC)c(OC)c2)cc1OC.O=P(O)(O)O [Comparative Example 1, bis((N-3-aminopropyl)-(N-(3,4-dimethoxyphenylpropionyl)))aminopropylamine phosphate]",Hygroscopic behaviour of solid after filtration,[2],extremely hygroscopic and quickly turned into an oil
"COc1ccc(CCC(=O)N(CCCN)CCCNCCCN(CCCN)C(=O)CCc2ccc(OC)c(OC)c2)cc1OC [Example 7, bis((N-3-aminopropyl)-(N-(3,4-dimethoxyphenylpropionyl)))aminopropylamine phosphate]",Change in crystal form after storage,[3]; 25° C./60% RH,no change in crystal form
same,Change in crystal form after storage,[3]; 60° C.,no change in crystal form
same,Change in crystal form after storage,[3]; 80° C.,no change in crystal form
same,Change in crystal form after storage,[3]; illumination,no change in crystal form
O=C(O)/C=C/C(=O)O [Fumaric acid],Salt-forming morphology,[1],Gel^#
O=C(O)c1cc(O)ccc1O [Gentisic acid],Salt-forming morphology,[1],Gel^†
O=C(O)CNC(=O)c1ccccc1 [Hippuric acid],Salt-forming morphology,[1],Oil^#
O=C(O)[C@H](O)[C@@H](O)C(=O)O [L-tartaric acid],Salt-forming morphology,[1],Solid^※
same,State of solid after being sealed and placed at room temperature,"[1]; sealed, 1 week",gelled
O=C(O)/C=C\C(=O)O [Maleic acid],Salt-forming morphology,[1],Gel^#
CS(=O)(=O)O [Methanesulfonic acid],Salt-forming morphology,[1],Gel*
O=C(O)CCC(=O)O [Succinic acid],Salt-forming morphology,[1],Gel*
"COc1ccc(CCC(=O)N(CCCN)CCCNCCCN(CCCN)C(=O)CCc2ccc(OC)c(OC)c2)cc1OC [bis((N-3-aminopropyl)-(N-(3,4-dimethoxyphenylpropionyl)))aminopropylamine phosphate]",Change in properties and purity on storage,"[4]; 25° C./60% RH, open vial",no obvious change in properties and purity
same,"Purity (peak area, %) 0 day","[4]; 25° C./60% RH, open vial, HPLC",99.56%
same,Stability (judgement in words),[4],good stability
same,Hygroscopicity class,[5],slightly hygroscopic
same,Hygroscopicity (%),[5],1.29%
same,solubility,"[6]; simulated fasting intestinal juice (FaSSIF), fassif, simulated fasting intestinal juice, read-out: Solubility in FaSSIF",> 9000 µg/mL
same,solubility,"[6]; simulated feeding intestinal juice (FeSSIF), fessif, simulated feeding intestinal juice, read-out: Solubility in FeSSIF",> 9000 µg/mL
same,solubility,"[6]; simulated gastric juice (SGF), simulated gastric fluid, simulated gastric juice, read-out: Solubility in SGF",> 9000 µg/mL
same,solubility,"[6]; water, 30 mg in 3 mL, read-out: Solubility in water",> 9000 µg/mL
same,pH value change during dynamic solubility test,[6]; within 24 h,did not change
"COc1ccc(CCC(=O)NCCCN(CCCN)CCCNC(=O)CCc2ccc(OC)c(OC)c2)cc1OC [free base, bis((N-3-aminopropyl)-(N-(3,4-dimethoxyphenylpropionyl)))aminopropylamine]",Purity before storage,[7]; initial,97.56%
same,Purity after left at room temperature for 7 days,"[7]; room temperature, 7 days",73.73%
Cc1ccc(S(=O)(=O)O)cc1 [p-Toluene sulfonic acid],Salt-forming morphology,[1],Gel*
Oxalate,Salt-forming morphology,[1],Solid
same,Hygroscopicity class,[5],extremely hygroscopic
same,Hygroscopicity (%),[5],18.62%
"bis((N-3-aminopropyl)-(N-(3,4-dimethoxyphenylpropionyl)))aminopropylamine hydrochloride [Hydrochloride^α]",Hygroscopicity class,[5],extremely hygroscopic
same,Hygroscopicity (%),[5],24.7%
"bis((N-3-aminopropyl)-(N-(3,4-dimethoxyphenylpropionyl)))aminopropylamine phosphate","Purity (peak area, %) 2 weeks","[4]; 25° C./60% RH, open vial, 2 weeks, HPLC",99.24%
same,Change in properties and purity on storage,"[4]; 25° C./60% RH, open vial",change into liquid from powdery solid
same,"Purity (peak area, %) 5 days","[4]; 25° C./60% RH, open vial, 5 days, HPLC",99.41%
same,"Purity (peak area, %) 0 day","[4]; 25° C./60% RH, open vial, HPLC",99.45%
same,Stability (judgement in words),[4],poor stability
same,Hygroscopicity class,[5],extremely hygroscopic
same,Hygroscopicity (%),[5],18.05%
same,Change of acid-base ratio after recrystallization,[8],more than 10%
